Experimental data from PubChem BioAssay AID330 (DTP/NCI, 2004).
Inconclusive results and toxic doses are left out.

Test system: P388 leukemia ip, CD2F1 mice, survival T/C
Experiment: NCI In Vivo Anticancer Drug Screen. Data for tumor model P388 Leukemia (intraperitoneal) in CD2F1 (CDF1) mice
Details: endpoint: median survival time, higher = longer survival
Summary of the method: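 Mice carrying the transplanted tumor received test compound or vehicle. Survival was recorded in each group, and the value is the treated-group measurement divided by that of the vehicle-treated control group.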

O=C1NC(c2cccc3ccccc23)Nc2ccccc21 (configuration not stated)
T/C (dose: 8.0 mg/kg/injection, schedule: Q03HX008 (ip), vehicle: Klucel (hydroxypropylcellulose) (HPC)): 118 % of control
T/C (dose: 8.0 mg/kg/injection, schedule: Q03HX008 (ip), vehicle: other): 109 % of control
T/C (dose: 8.0 mg/kg/injection, schedule: Q03HX008 (oral), vehicle: Klucel (hydroxypropylcellulose) (HPC)): 99 % of control
T/C (dose: 8.0 mg/kg/injection, schedule: Q03HX008 (oral), vehicle: other): 100 % of control
T/C (dose: 8.0 mg/kg/injection, schedule: Q03HX016 (ip), vehicle: Klucel (hydroxypropylcellulose) (HPC)): 124 % of control
T/C (dose: 8.0 mg/kg/injection, schedule: Q03HX016 (ip), vehicle: other): 101 % of control
T/C (dose: 8.0 mg/kg/injection, schedule: Q03HX016 (oral), vehicle: Klucel (hydroxypropylcellulose) (HPC)): 100 % of control
T/C (dose: 8.0 mg/kg/injection, schedule: Q03HX016 (oral), vehicle: other): 114 % of control
T/C (dose: 8.0 mg/kg/injection, schedule: Q03HX024 (ip), vehicle: other): 124 % of control
T/C (dose: 8.0 mg/kg/injection, schedule: Q03HX024 (oral), vehicle: Klucel (hydroxypropylcellulose) (HPC)): 101 % of control
T/C (dose: 8.0 mg/kg/injection, schedule: Q03HX024 (oral), vehicle: other): 108 % of control
T/C (dose: 16.0 mg/kg/injection, schedule: Q01DX009 (ip), vehicle: Klucel (hydroxypropylcellulose) (HPC)): 155 % of control
T/C (dose: 16.0 mg/kg/injection, schedule: Q01DX009 (ip), vehicle: other): 108 % of control
T/C (dose: 16.0 mg/kg/injection, schedule: Q01DX009 (oral), vehicle: Klucel (hydroxypropylcellulose) (HPC)): 100 % of control
T/C (dose: 16.0 mg/kg/injection, schedule: Q01DX009 (oral), vehicle: other): 100 % of control
T/C (dose: 16.0 mg/kg/injection, schedule: Q01DX009 (sc), vehicle: Klucel (hydroxypropylcellulose) (HPC)): 106 % of control
T/C (dose: 16.0 mg/kg/injection, schedule: Q01DX009 (sc), vehicle: other): 94 % of control
T/C (dose: 16.0 mg/kg/injection, schedule: Q03HX008 (ip), vehicle: other): 117 % of control
T/C (dose: 16.0 mg/kg/injection, schedule: Q03HX008 (oral), vehicle: Klucel (hydroxypropylcellulose) (HPC)): 95 % of control
T/C (dose: 16.0 mg/kg/injection, schedule: Q03HX008 (oral), vehicle: other): 104 % of control
T/C (dose: 16.0 mg/kg/injection, schedule: Q03HX016 (ip), vehicle: other): 123 % of control
T/C (dose: 16.0 mg/kg/injection, schedule: Q03HX016 (oral), vehicle: Klucel (hydroxypropylcellulose) (HPC)): 102 % of control
T/C (dose: 16.0 mg/kg/injection, schedule: Q03HX016 (oral), vehicle: other): 115 % of control
T/C (dose: 16.0 mg/kg/injection, schedule: Q03HX024 (ip), vehicle: Klucel (hydroxypropylcellulose) (HPC)): 174 % of control
T/C (dose: 16.0 mg/kg/injection, schedule: Q03HX024 (oral), vehicle: Klucel (hydroxypropylcellulose) (HPC)): 102 % of control
T/C (dose: 32.0 mg/kg/injection, schedule: Q01DX009 (ip), vehicle: Klucel (hydroxypropylcellulose) (HPC)): 177 % of control
T/C (dose: 32.0 mg/kg/injection, schedule: Q01DX009 (ip), vehicle: other): 102 % of control
T/C (dose: 32.0 mg/kg/injection, schedule: Q01DX009 (oral), vehicle: Klucel (hydroxypropylcellulose) (HPC)): 102 % of control
T/C (dose: 32.0 mg/kg/injection, schedule: Q01DX009 (oral), vehicle: other): 107 % of control
T/C (dose: 32.0 mg/kg/injection, schedule: Q01DX009 (sc), vehicle: Klucel (hydroxypropylcellulose) (HPC)): 114 % of control
T/C (dose: 32.0 mg/kg/injection, schedule: Q01DX009 (sc), vehicle: other): 117 % of control
T/C (dose: 32.0 mg/kg/injection, schedule: Q03HX008 (ip), vehicle: Klucel (hydroxypropylcellulose) (HPC)): 173 % of control
T/C (dose: 32.0 mg/kg/injection, schedule: Q03HX008 (oral), vehicle: Klucel (hydroxypropylcellulose) (HPC)): 99 % of control
T/C (dose: 32.0 mg/kg/injection, schedule: Q03HX008 (oral), vehicle: other): 122 % of control
T/C (dose: 32.0 mg/kg/injection, schedule: Q03HX016 (ip), vehicle: Klucel (hydroxypropylcellulose) (HPC)): 200 % of control
T/C (dose: 32.0 mg/kg/injection, schedule: Q03HX016 (oral), vehicle: Klucel (hydroxypropylcellulose) (HPC)): 110 % of control
T/C (dose: 32.0 mg/kg/injection, schedule: Q03HX024 (oral), vehicle: Klucel (hydroxypropylcellulose) (HPC)): 109 % of control
T/C (dose: 32.0 mg/kg/injection, schedule: Q03HX024 (oral), vehicle: other): 168 % of control
T/C (dose: 64.0 mg/kg/injection, schedule: Q01DX001 (ip), vehicle: Klucel (hydroxypropylcellulose) (HPC)): 113 % of control
T/C (dose: 64.0 mg/kg/injection, schedule: Q01DX001 (ip), vehicle: other): 99 % of control
T/C (dose: 64.0 mg/kg/injection, schedule: Q01DX001 (oral), vehicle: Klucel (hydroxypropylcellulose) (HPC)): 100 % of control
T/C (dose: 64.0 mg/kg/injection, schedule: Q01DX001 (oral), vehicle: other): 94 % of control
T/C (dose: 64.0 mg/kg/injection, schedule: Q01DX009 (ip), vehicle: Klucel (hydroxypropylcellulose) (HPC)): 194 % of control
T/C (dose: 64.0 mg/kg/injection, schedule: Q01DX009 (ip), vehicle: other): 120 % of control
T/C (dose: 64.0 mg/kg/injection, schedule: Q01DX009 (oral), vehicle: Klucel (hydroxypropylcellulose) (HPC)): 108 % of control
T/C (dose: 64.0 mg/kg/injection, schedule: Q01DX009 (oral), vehicle: other): 118 % of control
T/C (dose: 64.0 mg/kg/injection, schedule: Q03HX008 (oral), vehicle: Klucel (hydroxypropylcellulose) (HPC)): 108 % of control
T/C (dose: 64.0 mg/kg/injection, schedule: Q03HX016 (oral), vehicle: Klucel (hydroxypropylcellulose) (HPC)): 116 % of control
T/C (dose: 64.0 mg/kg/injection, schedule: Q03HX024 (oral), vehicle: Klucel (hydroxypropylcellulose) (HPC)): 119 % of control
T/C (dose: 64.0 mg/kg/injection, schedule: Q04DX003 (ip), vehicle: Klucel (hydroxypropylcellulose) (HPC)): 118 % of control
T/C (dose: 64.0 mg/kg/injection, schedule: Q04DX003 (ip), vehicle: other): 91 % of control
T/C (dose: 64.0 mg/kg/injection, schedule: Q04DX003 (oral), vehicle: Klucel (hydroxypropylcellulose) (HPC)): 100 % of control
T/C (dose: 64.0 mg/kg/injection, schedule: Q04DX003 (oral), vehicle: other): 117 % of control
T/C (dose: 64.0 mg/kg/injection, schedule: Q04DX003 (sc), vehicle: Klucel (hydroxypropylcellulose) (HPC)): 113 % of control
T/C (dose: 64.0 mg/kg/injection, schedule: Q04DX003 (sc), vehicle: other): 107 % of control
T/C (dose: 64.0 mg/kg/injection, schedule: Q08DX002 (ip), vehicle: Klucel (hydroxypropylcellulose) (HPC)): 118 % of control
T/C (dose: 64.0 mg/kg/injection, schedule: Q08DX002 (ip), vehicle: other): 100 % of control
T/C (dose: 64.0 mg/kg/injection, schedule: Q08DX002 (oral), vehicle: Klucel (hydroxypropylcellulose) (HPC)): 102 % of control
T/C (dose: 64.0 mg/kg/injection, schedule: Q08DX002 (oral), vehicle: other): 104 % of control
T/C (dose: 128.0 mg/kg/injection, schedule: Q01DX001 (ip), vehicle: Klucel (hydroxypropylcellulose) (HPC)): 121 % of control
T/C (dose: 128.0 mg/kg/injection, schedule: Q01DX001 (ip), vehicle: other): 104 % of control
T/C (dose: 128.0 mg/kg/injection, schedule: Q01DX001 (oral), vehicle: Klucel (hydroxypropylcellulose) (HPC)): 99 % of control
T/C (dose: 128.0 mg/kg/injection, schedule: Q01DX001 (oral), vehicle: other): 108 % of control
T/C (dose: 128.0 mg/kg/injection, schedule: Q01DX009 (oral), vehicle: Klucel (hydroxypropylcellulose) (HPC)): 109 % of control
T/C (dose: 128.0 mg/kg/injection, schedule: Q03HX008 (oral), vehicle: Klucel (hydroxypropylcellulose) (HPC)): 110 % of control
T/C (dose: 128.0 mg/kg/injection, schedule: Q03HX016 (oral), vehicle: Klucel (hydroxypropylcellulose) (HPC)): 122 % of control
T/C (dose: 128.0 mg/kg/injection, schedule: Q04DX003 (ip), vehicle: other): 109 % of control
T/C (dose: 128.0 mg/kg/injection, schedule: Q04DX003 (oral), vehicle: Klucel (hydroxypropylcellulose) (HPC)): 105 % of control
T/C (dose: 128.0 mg/kg/injection, schedule: Q04DX003 (oral), vehicle: other): 122 % of control
T/C (dose: 128.0 mg/kg/injection, schedule: Q04DX003 (sc), vehicle: Klucel (hydroxypropylcellulose) (HPC)): 115 % of control
T/C (dose: 128.0 mg/kg/injection, schedule: Q04DX003 (sc), vehicle: other): 114 % of control
T/C (dose: 128.0 mg/kg/injection, schedule: Q08DX002 (ip), vehicle: other): 94 % of control
T/C (dose: 128.0 mg/kg/injection, schedule: Q08DX002 (oral), vehicle: Klucel (hydroxypropylcellulose) (HPC)): 106 % of control
T/C (dose: 256.0 mg/kg/injection, schedule: Q01DX001 (ip), vehicle: other): 105 % of control
T/C (dose: 256.0 mg/kg/injection, schedule: Q01DX001 (oral), vehicle: Klucel (hydroxypropylcellulose) (HPC)): 101 % of control
T/C (dose: 256.0 mg/kg/injection, schedule: Q01DX009 (oral), vehicle: Klucel (hydroxypropylcellulose) (HPC)): 116 % of control
T/C (dose: 256.0 mg/kg/injection, schedule: Q01DX009 (sc), vehicle: Klucel (hydroxypropylcellulose) (HPC)): 91 % of control
T/C (dose: 256.0 mg/kg/injection, schedule: Q04DX003 (ip), vehicle: Klucel (hydroxypropylcellulose) (HPC)): 168 % of control
T/C (dose: 256.0 mg/kg/injection, schedule: Q04DX003 (ip), vehicle: other): 109 % of control
T/C (dose: 256.0 mg/kg/injection, schedule: Q04DX003 (oral), vehicle: Klucel (hydroxypropylcellulose) (HPC)): 107 % of control
T/C (dose: 256.0 mg/kg/injection, schedule: Q04DX003 (oral), vehicle: other): 95 % of control
T/C (dose: 256.0 mg/kg/injection, schedule: Q04DX003 (sc), vehicle: Klucel (hydroxypropylcellulose) (HPC)): 122 % of control
T/C (dose: 256.0 mg/kg/injection, schedule: Q08DX002 (ip), vehicle: other): 108 % of control
T/C (dose: 256.0 mg/kg/injection, schedule: Q08DX002 (oral), vehicle: Klucel (hydroxypropylcellulose) (HPC)): 106 % of control
T/C (dose: 512.0 mg/kg/injection, schedule: Q01DX001 (oral), vehicle: Klucel (hydroxypropylcellulose) (HPC)): 102 % of control
T/C (dose: 512.0 mg/kg/injection, schedule: Q04DX003 (oral), vehicle: Klucel (hydroxypropylcellulose) (HPC)): 116 % of control
T/C (dose: 512.0 mg/kg/injection, schedule: Q08DX002 (ip), vehicle: Klucel (hydroxypropylcellulose) (HPC)): 185 % of control
T/C (dose: 512.0 mg/kg/injection, schedule: Q08DX002 (oral), vehicle: Klucel (hydroxypropylcellulose) (HPC)): 108 % of control
T/C (dose: 1024.0 mg/kg/injection, schedule: Q01DX001 (oral), vehicle: Klucel (hydroxypropylcellulose) (HPC)): 101 % of control
T/C (dose: 1024.0 mg/kg/injection, schedule: Q04DX003 (oral), vehicle: Klucel (hydroxypropylcellulose) (HPC)): 106 % of control
T/C (dose: 1024.0 mg/kg/injection, schedule: Q04DX003 (sc), vehicle: Klucel (hydroxypropylcellulose) (HPC)): 123 % of control
T/C (dose: 1024.0 mg/kg/injection, schedule: Q08DX002 (oral), vehicle: Klucel (hydroxypropylcellulose) (HPC)): 115 % of control
